Where two headings read alike, the source gives them in different places.
Assays:
[1] = biological target: T1, SABP2 (Nicotiana tabacum, UniProt Q6RYA0); experiment: [3H]SA competition assay with unlabeled SA and SA analogues; type: binding, tobacco
T1 construct: Soluble proteins were extracted from the powdered leaves; from tissue; host or cells: tobacco leaf (cv. Xanthi nc), 50-75% ammonium sulfate fraction
T1 sequence (Q6RYA0 1-260): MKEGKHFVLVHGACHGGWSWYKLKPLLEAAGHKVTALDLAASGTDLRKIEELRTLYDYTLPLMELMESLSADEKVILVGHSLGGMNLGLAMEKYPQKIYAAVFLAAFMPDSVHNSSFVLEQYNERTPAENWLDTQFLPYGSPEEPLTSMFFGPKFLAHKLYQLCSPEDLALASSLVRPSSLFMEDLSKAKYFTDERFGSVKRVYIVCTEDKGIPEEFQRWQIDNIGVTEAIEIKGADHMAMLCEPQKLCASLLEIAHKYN
Protocol: (§1) [3H]SA binding and competition assays. […] Spin columns were prepared by packing Sephadex G25 gel (exclusion limit 5 kDa; Pharmacia), which was pre-equilibrated in buffer A, in a 1-mL disposable syringe and centrifuging at 1,000 g for 4 minutes at 4° C. This process was repeated until the bed volume of the spin column reached 1 mL. One additional spin with 125 μL buffer A was performed under the same centrifugation conditions. The binding mixture (125 μL) was loaded onto the spin column and immediately centrifuged. […] When no protein extract was included in the binding mixture, the background radioactivity level was 33±3 dpm/100 μL. For the boiling treatment, the extract was boiled for 5 minutes and denatured protein aggregates were removed by centrifugation at 12,000 g for 1 minute.

[2] = tested on: PR gene expression and enhanced disease resistance; parameters: key to Biological activity: +, active; -, inactive; conditions: cited from earlier work; for Biological activity: based on FIG. 7 and literature
[3] = biological target: T2, tobacco catalase (Nicotiana tabacum, UniProt P49319); experiment: Inhibition of catalase activity; type: biochemical; conditions: unpublished data
T2 construct: tobacco catalase activity in suspension cells and in crude leaf extracts; host or cells: tobacco suspension cells, crude leaf extracts, purified enzyme
T2 sequence (P49319 1-492): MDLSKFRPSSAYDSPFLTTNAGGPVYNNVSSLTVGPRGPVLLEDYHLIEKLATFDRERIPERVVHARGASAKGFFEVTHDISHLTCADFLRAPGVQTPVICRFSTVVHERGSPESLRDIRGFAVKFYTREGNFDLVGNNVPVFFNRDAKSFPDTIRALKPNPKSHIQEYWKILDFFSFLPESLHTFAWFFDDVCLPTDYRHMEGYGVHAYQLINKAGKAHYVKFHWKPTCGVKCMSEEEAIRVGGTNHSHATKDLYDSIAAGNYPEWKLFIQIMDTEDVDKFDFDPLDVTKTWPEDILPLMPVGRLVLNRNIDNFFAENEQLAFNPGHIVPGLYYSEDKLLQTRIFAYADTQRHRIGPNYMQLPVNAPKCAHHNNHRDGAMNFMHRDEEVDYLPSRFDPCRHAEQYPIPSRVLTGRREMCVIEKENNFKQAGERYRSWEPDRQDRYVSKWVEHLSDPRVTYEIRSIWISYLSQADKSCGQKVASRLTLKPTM

[4] = tested on: PR-1 gene expression; experiment: Induction of PR-1 gene expression in leaf discs (northern blot); type: cell-based, tobacco; conditions: Nicotiana tabacum, foliar, 24 hours after treatment, read-out: concentration giving 15-fold induction of PR-1 gene expression
Excerpt: As a control, rRNA present in each lane is also shown. FIG. 7B is a graph showing quantification of the fold-induction of the PR-1 mRNA levels after SA (.cndot.) and BTH (.smallcircle.) treatment. The levels of PR-1 mRNA were normalized to the amounts of rRNA. The rRNA-normalized levels of PR-1 mRNA obtained after infiltration of leaf discs with SA or BTH were divided by the rRNA-normalized level of PR-1 mRNA obtained after infiltration with water only to determine the fold induction. The data presented are from a single experiment; two additional experiments were done. The maximum-fold induction of the PR-1 genes and the concentrations of SA and BTH required to reach approximately 50% of this value varied somewhat among the three experiments, depending on the age of the plant. In the three experiments, the concentrations of BTH needed to reach approximately 50% induction were 30- to 40-fold lower than those for SA.

[5] = biological target: T1, SABP2; experiment: [3H]SA binding assay (kinetics, reversibility, saturation, Scatchard plot); parameters: species or system tobacco; conditions: for time until binding is complete / approaches equilibrium: 0-4° C.
Protocol: as §1

[6] = tested on: APX; conditions: cited from earlier work
[7] = biological target: T3, catalase (Nicotiana tabacum, UniProt P49319); conditions: cited from earlier work
T3 construct: has been identified in tobacco leaf extracts; host or cells: tobacco leaf extracts
T3 sequence (P49319 1-492): T2 sequence (P49319 1-492)

[8] = biological target: T2, tobacco catalase; conditions: cited from earlier work
[9] = tested on: tobacco catalase; conditions: in vivo; cited from earlier work
[10] = 50-75% fraction, 0.1 μM [3H]SA, on ice 2 hours, estimated from FIG. 6, read-out: IC50 of competition for [3H]SA binding

SMILES | IC50 [1, 10] | Biological activity [2] | Biologically active / inactive (FIG. 6 legend) ([2]; in vivo) | IC50 [1] | also measured
O=C(O)c1cc(Cl)ccc1O [5-chloroSA, 5-chlorosalicylic acid] | 0.3 µM | + | Biologically active |  | 
O=C(O)c1cc(O)ccc1O [2,5-dihydroxybenzoic acid] | 20 µM | - | biologically inactive |  | 
O=C(O)c1ccccc1O[C@@H]1O[C@H](CO)[C@@H](O)[C@H](O)[C@H]1O [SA β-glucoside] |  |  |  |  | induction of disease resistance ([2]; in vivo): not active
CSC(=O)c1cccc2nnsc12 [BTH, benzo(1,2,3)thiadiazole-7-carbothioic acid S-methyl ester] |  | + | Biologically active | 0.1 µM | catalase inhibition compared with SA [3]: more effective inhibitor of catalase than SA; EC (15-fold) [4]: ~3.3 µM
O=C(O)c1ccccc1O [SA, salicylic acid] |  | + | Biologically active | 1.5 µM | time until binding is complete / approaches equilibrium [5]: 15 to 20 min; inhibition at 1000 µM ([5]; 50-75% fraction, 1 mM SA, 0.1 μM [3H]SA, read-out: reduction of binding activity in the presence of excess unlabeled SA): 85%; remaining activity at 1000 µM ([5]; 100% = binding after 160 minutes of incubation, read-out: [3H]SA binding remaining after addition of 1 mM SA): < 10%; Kd ([5]; Scatchard plot, 50-75% fraction): 0.09 µM; SA level required for effective inhibition of APX activity [6]: 50 to 300 µM; Kd ([7]; [14C]SA, tobacco leaf extracts, read-out: Kd of SA binding to catalase): 14 µM; time until binding to catalase approaches equilibrium [7]: 90 to 120 min; SA level required for effective inhibition of catalase activity [8]: 50 to 300 µM
O=C(O)c1ccc(O)cc1 [4-hydroxybenzoic acid] | > 1000 µM | - | biologically inactive |  | 
O=C(O)c1cccc(O)c1 [3-hydroxybenzoic acid] | 105 µM | - | biologically inactive |  | 
O=C(O)c1c(O)cccc1O [2,6-dihydroxybenzoic acid] | 2 µM | + | Biologically active |  | 
O=C(O)c1cc(Cl)nc(Cl)c1 [INA, 2,6-dichloroisonicotinic acid] |  | + | Biologically active | 70 µM | inhibition of catalase activity in crude extracts ([8]; crude extracts): less effective at inhibiting catalase activity in crude extracts; inhibition of purified tobacco catalase ([8]; purified enzyme): fails to inhibit purified tobacco catalase; inhibition of tobacco catalase in vivo [9]: effectively blocks tobacco catalase in vivo
O=C(O)c1ccccc1O [[^3 H]SA] |  |  |  |  | time until binding is complete / approaches equilibrium [5]: approximately 20 minutes; half association time ([5]; 50-75% fraction): 5 min
